Data taken from the supplement of paper PMC8671470.

tested on: SHI-1; experiment: cell viability (% survival relative to DMSO control, bortezomib = 0%); higher = less cytotoxic; settings: 10000 nM; 72 h
Summary of the method: (§1)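 Percent survival is reported as the mean of duplicate wells. Cells from 10 AML and 5 CML lines were plated in 384-well plates containing compounds at 1, 10, 100, 1000 or 10000 nM and kept for 72 h at 37 °C in 5% CO2. Readout used CellTiter-Glo luminescence, scaled so that vehicle equals 100% and a 10 µM positive control equals 0%.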

Row | SMILES | cell viability
1 | CN(Cc1cnc2nc(N)nc(N)c2n1)c1ccc(C(=O)N[C@@H](CCC(=O)O)C(=O)O)cc1 [Methotrexate] | 47.1%
2 | COC(=O)c1cc2c(C(F)(F)F)cc(-c3ccccc3)cc2n1O [NHI-2] | 96.9%
3 | CCCCCCCC/C=C\CCCCCCCC(=O)Nc1ccccc1 [Octadec-9-Enoic Acid Phenylamide] | 98%
4 | CC[C@H](C)[C@H](N)C(=O)N1CCSC1 [P32/98] | 88.5%
5 | CC(=O)Nc1nc(C)c(-c2ccc(Cl)c(S(=O)(=O)NCCO)c2)s1 [PIK93] | 13.4%
6 | OC[C@H]1O[C@@H](n2cnc3c2N=CNC[C@H]3O)C[C@@H]1O [Pentostatin] | 111%
7 | CC(C)CC(=O)N[C@H](C(=O)N[C@H](C(=O)N[C@@H](CC(C)C)[C@@H](O)CC(=O)N[C@@H](C)C(=O)N[C@@H](CC(C)C)[C@@H](O)CC(=O)O)C(C)C)C(C)C [Pepstatin A] | 105%
8 | Cc1cccc(Nc2cc(Cl)nc(SCC(=O)O)n2)c1C [Pirinixic acid] | 82.8%
9 | C[C@]12C=CC(=O)C=C1CC[C@@H]1[C@@H]2[C@@H](O)C[C@@]2(C)[C@H]1CC[C@]2(O)C(=O)CO [Prednisolone] | 71.9%
10 | C=CCN(C)CCCCCCOc1ccc(C(=O)c2ccc(Br)cc2)c(F)c1.O=C(O)/C=C/C(=O)O [Ro 48-8071 fumarate] | 58.5%

tested on: THP-1; experiment: as above; settings: 1 nM; 72 h
Summary of the method: as §1

Row | SMILES | cell viability
11 | CN(Cc1cnc2nc(N)nc(N)c2n1)c1ccc(C(=O)N[C@@H](CCC(=O)O)C(=O)O)cc1 [Methotrexate] | 99.8%
12 | COC(=O)c1cc2c(C(F)(F)F)cc(-c3ccccc3)cc2n1O [NHI-2] | 97.4%
13 | CCCCCCCC/C=C\CCCCCCCC(=O)Nc1ccccc1 [Octadec-9-Enoic Acid Phenylamide] | 98.7%
14 | CC[C@H](C)[C@H](N)C(=O)N1CCSC1 [P32/98] | 96.8%
15 | CC(=O)Nc1nc(C)c(-c2ccc(Cl)c(S(=O)(=O)NCCO)c2)s1 [PIK93] | 105%
16 | OC[C@H]1O[C@@H](n2cnc3c2N=CNC[C@H]3O)C[C@@H]1O [Pentostatin] | 102%
17 | CC(C)CC(=O)N[C@H](C(=O)N[C@H](C(=O)N[C@@H](CC(C)C)[C@@H](O)CC(=O)N[C@@H](C)C(=O)N[C@@H](CC(C)C)[C@@H](O)CC(=O)O)C(C)C)C(C)C [Pepstatin A] | 96.3%
18 | Cc1cccc(Nc2cc(Cl)nc(SCC(=O)O)n2)c1C [Pirinixic acid] | 105%
19 | C[C@]12C=CC(=O)C=C1CC[C@@H]1[C@@H]2[C@@H](O)C[C@@]2(C)[C@H]1CC[C@]2(O)C(=O)CO [Prednisolone] | 92%
20 | C=CCN(C)CCCCCCOc1ccc(C(=O)c2ccc(Br)cc2)c(F)c1.O=C(O)/C=C/C(=O)O [Ro 48-8071 fumarate] | 102%

same assay, conditions: 10 nM; 72 h

Row | SMILES | cell viability
21 | CN(Cc1cnc2nc(N)nc(N)c2n1)c1ccc(C(=O)N[C@@H](CCC(=O)O)C(=O)O)cc1 [Methotrexate] | 96.6%
22 | COC(=O)c1cc2c(C(F)(F)F)cc(-c3ccccc3)cc2n1O [NHI-2] | 99.3%
23 | CCCCCCCC/C=C\CCCCCCCC(=O)Nc1ccccc1 [Octadec-9-Enoic Acid Phenylamide] | 97.9%
24 | CC[C@H](C)[C@H](N)C(=O)N1CCSC1 [P32/98] | 105%
25 | CC(=O)Nc1nc(C)c(-c2ccc(Cl)c(S(=O)(=O)NCCO)c2)s1 [PIK93] | 102%
26 | OC[C@H]1O[C@@H](n2cnc3c2N=CNC[C@H]3O)C[C@@H]1O [Pentostatin] | 93.5%
27 | CC(C)CC(=O)N[C@H](C(=O)N[C@H](C(=O)N[C@@H](CC(C)C)[C@@H](O)CC(=O)N[C@@H](C)C(=O)N[C@@H](CC(C)C)[C@@H](O)CC(=O)O)C(C)C)C(C)C [Pepstatin A] | 87.1%
28 | Cc1cccc(Nc2cc(Cl)nc(SCC(=O)O)n2)c1C [Pirinixic acid] | 97.1%
29 | C[C@]12C=CC(=O)C=C1CC[C@@H]1[C@@H]2[C@@H](O)C[C@@]2(C)[C@H]1CC[C@]2(O)C(=O)CO [Prednisolone] | 96.4%
30 | C=CCN(C)CCCCCCOc1ccc(C(=O)c2ccc(Br)cc2)c(F)c1.O=C(O)/C=C/C(=O)O [Ro 48-8071 fumarate] | 91.7%

same assay, conditions: 100 nM; 72 h

Row | SMILES | cell viability
31 | CN(Cc1cnc2nc(N)nc(N)c2n1)c1ccc(C(=O)N[C@@H](CCC(=O)O)C(=O)O)cc1 [Methotrexate] | 13%
32 | COC(=O)c1cc2c(C(F)(F)F)cc(-c3ccccc3)cc2n1O [NHI-2] | 104%
33 | CCCCCCCC/C=C\CCCCCCCC(=O)Nc1ccccc1 [Octadec-9-Enoic Acid Phenylamide] | 103%
34 | CC[C@H](C)[C@H](N)C(=O)N1CCSC1 [P32/98] | 112%
35 | CC(=O)Nc1nc(C)c(-c2ccc(Cl)c(S(=O)(=O)NCCO)c2)s1 [PIK93] | 112%
36 | OC[C@H]1O[C@@H](n2cnc3c2N=CNC[C@H]3O)C[C@@H]1O [Pentostatin] | 111%
37 | CC(C)CC(=O)N[C@H](C(=O)N[C@H](C(=O)N[C@@H](CC(C)C)[C@@H](O)CC(=O)N[C@@H](C)C(=O)N[C@@H](CC(C)C)[C@@H](O)CC(=O)O)C(C)C)C(C)C [Pepstatin A] | 103%
38 | Cc1cccc(Nc2cc(Cl)nc(SCC(=O)O)n2)c1C [Pirinixic acid] | 101%
39 | C[C@]12C=CC(=O)C=C1CC[C@@H]1[C@@H]2[C@@H](O)C[C@@]2(C)[C@H]1CC[C@]2(O)C(=O)CO [Prednisolone] | 106%
40 | C=CCN(C)CCCCCCOc1ccc(C(=O)c2ccc(Br)cc2)c(F)c1.O=C(O)/C=C/C(=O)O [Ro 48-8071 fumarate] | 105%

same assay, conditions: 1000 nM; 72 h

Row | SMILES | cell viability
41 | CN(Cc1cnc2nc(N)nc(N)c2n1)c1ccc(C(=O)N[C@@H](CCC(=O)O)C(=O)O)cc1 [Methotrexate] | 10.3%
42 | COC(=O)c1cc2c(C(F)(F)F)cc(-c3ccccc3)cc2n1O [NHI-2] | 98.9%
43 | CCCCCCCC/C=C\CCCCCCCC(=O)Nc1ccccc1 [Octadec-9-Enoic Acid Phenylamide] | 93.5%
44 | CC[C@H](C)[C@H](N)C(=O)N1CCSC1 [P32/98] | 104%
45 | CC(=O)Nc1nc(C)c(-c2ccc(Cl)c(S(=O)(=O)NCCO)c2)s1 [PIK93] | 74.7%
46 | OC[C@H]1O[C@@H](n2cnc3c2N=CNC[C@H]3O)C[C@@H]1O [Pentostatin] | 98.3%
47 | CC(C)CC(=O)N[C@H](C(=O)N[C@H](C(=O)N[C@@H](CC(C)C)[C@@H](O)CC(=O)N[C@@H](C)C(=O)N[C@@H](CC(C)C)[C@@H](O)CC(=O)O)C(C)C)C(C)C [Pepstatin A] | 96.1%
48 | Cc1cccc(Nc2cc(Cl)nc(SCC(=O)O)n2)c1C [Pirinixic acid] | 99.5%
49 | C[C@]12C=CC(=O)C=C1CC[C@@H]1[C@@H]2[C@@H](O)C[C@@]2(C)[C@H]1CC[C@]2(O)C(=O)CO [Prednisolone] | 108%
50 | C=CCN(C)CCCCCCOc1ccc(C(=O)c2ccc(Br)cc2)c(F)c1.O=C(O)/C=C/C(=O)O [Ro 48-8071 fumarate] | 101%

same assay, conditions: 10000 nM; 72 h

Row | SMILES | cell viability
51 | CN(Cc1cnc2nc(N)nc(N)c2n1)c1ccc(C(=O)N[C@@H](CCC(=O)O)C(=O)O)cc1 [Methotrexate] | 11.8%
52 | COC(=O)c1cc2c(C(F)(F)F)cc(-c3ccccc3)cc2n1O [NHI-2] | 108%
53 | CCCCCCCC/C=C\CCCCCCCC(=O)Nc1ccccc1 [Octadec-9-Enoic Acid Phenylamide] | 107%
54 | CC[C@H](C)[C@H](N)C(=O)N1CCSC1 [P32/98] | 106%
55 | CC(=O)Nc1nc(C)c(-c2ccc(Cl)c(S(=O)(=O)NCCO)c2)s1 [PIK93] | 24.5%
56 | OC[C@H]1O[C@@H](n2cnc3c2N=CNC[C@H]3O)C[C@@H]1O [Pentostatin] | 103%
57 | CC(C)CC(=O)N[C@H](C(=O)N[C@H](C(=O)N[C@@H](CC(C)C)[C@@H](O)CC(=O)N[C@@H](C)C(=O)N[C@@H](CC(C)C)[C@@H](O)CC(=O)O)C(C)C)C(C)C [Pepstatin A] | 97%
58 | Cc1cccc(Nc2cc(Cl)nc(SCC(=O)O)n2)c1C [Pirinixic acid] | 102%
59 | C[C@]12C=CC(=O)C=C1CC[C@@H]1[C@@H]2[C@@H](O)C[C@@]2(C)[C@H]1CC[C@]2(O)C(=O)CO [Prednisolone] | 102%
60 | C=CCN(C)CCCCCCOc1ccc(C(=O)c2ccc(Br)cc2)c(F)c1.O=C(O)/C=C/C(=O)O [Ro 48-8071 fumarate] | 80.3%
